Reference: the OligoGym collection
Strand notation (5' to 3'): a small letter for the sugar, then the base; units joined by * are phosphorothioate-linked, units joined directly phosphodiester-linked; [ ] holds rarer units or linkages, { } end groups; capitals alone tell only the bases. HELM strings list units from the 5' end as sugar, base in round brackets, then linkage (d deoxyribose, r ribose, m 2'-O-methyl, p phosphodiester). [sp] = phosphorothioate linkage; d = 2'-deoxy (DNA); m = 2'-O-methyl

Legend:
[1] = target: CDKN2B-AS1; test: HEK293-TLR8, 100 nM ASO, then resiquimod
[2] = target: CDKN2B-AS1; test: HEK293-TLR7, 100 nM ASO, then resiquimod
[3] = target: LINC-PINT; test: HEK293-TLR8, 100 nM ASO, then resiquimod
[4] = target: LINC-PINT; test: HEK293-TLR7, 100 nM ASO, then resiquimod
[5] = target: EGFR; test: HEK293-TLR8, 100 nM ASO, then resiquimod
[6] = target: EGFR; test: HEK293-TLR7, 100 nM ASO, then resiquimod

Row | Substance | TLR8 potentiation (NF-kB luciferase) (fold of resiquimod alone) [5] | TLR7 signal (NF-kB luciferase) (% of resiquimod alone) [6] | also measured
1 | RNA1{m(U)[sp].m(U)[sp].m(A)[sp].m(A)[sp].m(A)[sp].d(T)[sp].d(A)[sp].d(A)[sp].d(T)[sp].d(C)[sp].d(T)[sp].d(A)[sp].d(G)[sp].d(T)[sp].d(T)[sp].m(U)[sp].m(G)[sp].m(A)[sp].m(A)[sp].m(G)}$$$$ |  |  | TLR8 potentiation (NF-kB luciferase) (fold of resiquimod alone) [1]: 3.96; TLR7 signal (NF-kB luciferase) (% of resiquimod alone) [2]: 25.7
2 | RNA1{m(U)[sp].m(U)[sp].m(G)[sp].m(U)[sp].m(G)[sp].d(A)[sp].d(A)[sp].d(A)[sp].d(A)[sp].d(G)[sp].d(A)[sp].d(T)[sp].d(T)[sp].d(A)[sp].d(T)[sp].m(C)[sp].m(U)[sp].m(U)[sp].m(C)[sp].m(U)}$$$$ |  |  | TLR8 potentiation (NF-kB luciferase) (fold of resiquimod alone) [1]: 1.05; TLR7 signal (NF-kB luciferase) (% of resiquimod alone) [2]: 35
3 | mA*mA*mA*mA*mA*dG*dT*dG*dG*dG*dA*dA*dA*dT*dA*mA*mA*mG*mG*mU |  |  | TLR8 potentiation (NF-kB luciferase) (fold of resiquimod alone) [3]: 1.34; TLR7 signal (NF-kB luciferase) (% of resiquimod alone) [4]: 28.8
4 | mA*mA*mA*mA*mA*dT*dT*dA*dC*dT*dT*dT*dA*dA*dA*mA*mG*mC*mA*mA | 1.32 | 71.1 | 
5 | mA*mA*mA*mA*mG*dG*dA*dG*dA*dA*dA*dA*dC*dT*dA*mU*mC*mU*mU*mC | 1.65 | 47.6 | 
6 | mA*mA*mA*mA*mG*dT*dG*dG*dG*dA*dA*dA*dT*dA*dA*mA*mG*mG*mU*mU |  |  | TLR8 potentiation (NF-kB luciferase) (fold of resiquimod alone) [3]: 1.48; TLR7 signal (NF-kB luciferase) (% of resiquimod alone) [4]: 30.9
7 | mA*mA*mG*mG*mC*dC*dC*dT*dT*dC*dG*dC*dA*dC*dT*mU*mC*mU*mU*mA | 1.49 | 31.2 | 
8 | mA*mA*mU*mU*mA*dC*dT*dT*dT*dA*dA*dA*dA*dG*dC*mA*mA*mA*mA*mG | 2.07 | 77.1 | 
9 | mA*mC*mA*mG*mU*dG*dT*dT*dG*dA*dG*dA*dT*dA*dC*mU*mC*mG*mG*mG | 2.73 | 47.6 | 
10 | mA*mG*mG*mU*mG*dT*dC*dC*dT*dT*dG*dC*dA*dC*dG*mU*mG*mG*mC*mU | 1.27 | 76.4 | 
11 | mA*mG*mU*mA*mA*dA*dA*dA*dG*dC*dT*dT*dT*dT*dG*mA*mA*mG*mU*mG | 2.7 | 48.3 | 
12 | mA*mU*mC*mC*mA*dC*dC*dA*dC*dG*dT*dC*dG*dT*dC*mC*mA*mU*mG*mU | 1.06 | 34.7 | 
13 | mA*mU*mG*mC*mC*dA*dT*dC*dC*dA*dC*dT*dT*dG*dA*mU*mA*mG*mG*mC | 1.16 | 29.3 | 
14 | mA*mU*mG*mU*mC*dC*dC*dG*dC*dC*dA*dC*dT*dG*dG*mA*mU*mG*mC*mU | 0.84 | 71.7 | 
15 | mA*mU*mU*mA*mC*dT*dT*dT*dA*dA*dA*dA*dG*dC*dA*mA*mA*mA*mG*mG | 2.17 | 42.9 | 
16 | mC*mA*mA*mG*mG*dC*dC*dC*dT*dT*dC*dG*dC*dA*dC*mU*mU*mC*mU*mU | 2.42 | 79.4 | 
17 | mC*mA*mC*mU*mG*dG*dG*dT*dG*dT*dA*dA*dG*dA*dG*mG*mC*mU*mC*mC | 2.44 | 87.3 | 
18 | mC*mA*mG*mG*mU*dG*dT*dC*dC*dT*dT*dG*dC*dA*dC*mG*mU*mG*mG*mC | 1.95 | 55.4 | 
19 | mC*mG*mG*mC*mA*dT*dC*dC*dA*dC*dC*dA*dC*dG*dT*mC*mG*mU*mC*mC | 1.33 | 56.7 | 
20 | mC*mU*mG*mU*mG*dA*dT*dC*dT*dT*dG*dA*dC*dA*dT*mG*mC*mU*mG*mC | 3.44 | 53.3 | 
21 | mC*mU*mU*mG*mC*dA*dC*dG*dT*dG*dG*dC*dT*dT*dC*mG*mU*mC*mU*mC | 3.06 | 28.1 | 
22 | mC*mU*mU*mU*mU*dG*dA*dA*dG*dT*dG*dA*dA*dG*dT*mA*mA*mA*mA*mG | 1.98 | 79.8 | 
23 | mC*mU*mU*mU*mU*dG*dG*dG*dA*dA*dC*dG*dG*dA*dC*mU*mG*mG*mU*mU | 1.91 | 53.2 | 
24 | mG*mA*mA*mG*mU*dG*dA*dA*dG*dT*dA*dA*dA*dA*dG*mG*mA*mG*mA*mA | 0.57 | 35.6 | 
25 | mG*mC*mA*mA*mG*dG*dC*dC*dC*dT*dT*dC*dG*dC*dA*mC*mU*mU*mC*mU | 2.55 | 33 | 
26 | mG*mG*mA*mG*mA*dT*dT*dT*dC*dA*dG*dA*dG*dC*dA*mG*mC*mU*mU*mC | 1.25 | 36.2 | 

Row | Substance | TLR8 potentiation (NF-kB luciferase) (fold of resiquimod alone) [5] | TLR7 signal (NF-kB luciferase) (% of resiquimod alone) [6] | also measured
27 | mG*mG*mC*mA*mU*dC*dC*dA*dC*dC*dA*dC*dG*dT*dC*mG*mU*mC*mC*mA | 0.85 | 34.9 | 
28 | mG*mG*mG*mA*mC*dA*dC*dT*dT*dC*dT*dT*dC*dA*dC*mG*mC*mA*mG*mG | 1.24 | 52.1 | 
29 | mG*mG*mG*mU*mA*dT*dC*dG*dA*dA*dA*dG*dA*dG*dT*mC*mU*mG*mG*mA | 0.91 | 27.1 | 
30 | mG*mG*mU*mG*mU*dC*dC*dT*dT*dG*dC*dA*dC*dG*dT*mG*mG*mC*mU*mU | 0.88 | 72.2 | 
31 | mG*mU*mA*mA*mA*dA*dA*dG*dC*dT*dT*dT*dT*dG*dA*mA*mG*mU*mG*mA | 1.62 | 29.1 | 
32 | mG*mU*mA*mA*mA*dA*dG*dG*dA*dG*dA*dA*dA*dA*dC*mU*mA*mU*mC*mU | 1.14 | 31.7 | 
33 | mG*mU*mA*mC*mU*dC*dG*dT*dC*dG*dG*dC*dA*dT*dC*mC*mA*mC*mC*mA | 1.25 | 31.5 | 
34 | mG*mU*mA*mG*mA*dG*dA*dA*dA*dT*dT*dA*dT*dT*dT*mU*mA*mG*mG*mA | 2.47 | 34.5 | 
35 | mG*mU*mC*mC*mU*dT*dG*dC*dA*dC*dG*dT*dG*dG*dC*mU*mU*mC*mG*mU | 0.8 | 31.5 | 
36 | mG*mU*mG*mU*mC*dC*dT*dT*dG*dC*dA*dC*dG*dT*dG*mG*mC*mU*mU*mC | 0.8 | 28.3 | 
37 | mG*mU*mU*mA*mC*dT*dC*dG*dT*dG*dC*dC*dT*dT*dG*mG*mC*mA*mA*mA | 1.17 | 32.3 | 
38 | mU*mA*mA*mA*mA*dG*dG*dA*dG*dA*dA*dA*dA*dC*dT*mA*mU*mC*mU*mU | 1.69 | 58.2 | 
39 | mU*mA*mC*mU*mC*dG*dT*dC*dG*dG*dC*dA*dT*dC*dC*mA*mC*mC*mA*mC | 1.08 | 70.2 | 
40 | mU*mA*mG*mG*mC*dA*dC*dT*dT*dT*dG*dC*dC*dT*dC*mC*mU*mU*mC*mU | 2.29 | 58.9 | 
41 | mU*mC*mG*mG*mC*dA*dT*dC*dC*dA*dC*dC*dA*dC*dG*mU*mC*mG*mU*mC | 1.39 | 53.7 | 
42 | mU*mG*mA*mA*mG*dT*dA*dA*dA*dA*dA*dT*dC*dA*dA*mU*mA*mG*mC*mG | 1.96 | 30 | 
43 | mU*mG*mG*mG*mC*dT*dG*dG*dA*dA*dT*dC*dC*dG*dA*mG*mU*mU*mA*mU | 1.92 | 36.1 | 
44 | mU*mG*mU*mA*mG*dA*dG*dA*dA*dA*dT*dT*dA*dT*dT*mU*mU*mA*mG*mG | 2.99 | 61.4 | 
45 | mU*mG*mU*mC*mC*dT*dT*dG*dC*dA*dC*dG*dT*dG*dG*mC*mU*mU*mC*mG | 2.61 | 62.7 | 
46 | mU*mU*mA*mC*mU*dT*dT*dA*dA*dA*dA*dG*dC*dA*dA*mA*mA*mG*mG*mA | 2.27 | 35 | 
47 | mU*mU*mG*mA*mA*dG*dT*dG*dA*dA*dG*dT*dA*dA*dA*mA*mG*mG*mA*mG | 0.96 | 31.8 | 
48 | mU*mU*mU*mA*mC*dG*dG*dT*dT*dT*dT*dC*dA*dG*dA*mA*mU*mA*mU*mC | 3.63 | 40.6 | 
49 | mU*mU*mU*mG*mA*dA*dG*dT*dG*dA*dA*dG*dT*dA*dA*mA*mA*mG*mG*mA | 2.58 | 35.2 | 
50 | mU*mU*mU*mU*mG*dA*dA*dG*dT*dG*dA*dA*dG*dT*dA*mA*mA*mA*mG*mG | 3.08 | 51.6 | 
51 | mU*mU*mU*mU*mG*dA*dA*dG*dT*dG*dT*dT*dT*dA*dA*mU*mA*mU*mU*mC | 4.09 | 78.9 | 
52 | mU*mU*mU*mU*mU*dG*dA*dA*dG*dT*dG*dT*dT*dT*dA*mA*mU*mA*mU*mU | 3.43 | 59 | 
